Source: ChEMBL document CHEMBL5291721, “A preclinical secondary pharmacology resource illuminates target-adverse drug reaction associations of marketed drugs” (Nat Commun, 2023)

Legend:
Cannabinoid receptor 1 = Cannabinoid receptor 1 (Homo sapiens, UniProt P21554); format: functional, cell-based
[1] = molecular target: T1, Muscarinic acetylcholine receptor M2 (Homo sapiens, UniProt P08172); format: functional, cell-based
T1 sequence (P08172 whole entry): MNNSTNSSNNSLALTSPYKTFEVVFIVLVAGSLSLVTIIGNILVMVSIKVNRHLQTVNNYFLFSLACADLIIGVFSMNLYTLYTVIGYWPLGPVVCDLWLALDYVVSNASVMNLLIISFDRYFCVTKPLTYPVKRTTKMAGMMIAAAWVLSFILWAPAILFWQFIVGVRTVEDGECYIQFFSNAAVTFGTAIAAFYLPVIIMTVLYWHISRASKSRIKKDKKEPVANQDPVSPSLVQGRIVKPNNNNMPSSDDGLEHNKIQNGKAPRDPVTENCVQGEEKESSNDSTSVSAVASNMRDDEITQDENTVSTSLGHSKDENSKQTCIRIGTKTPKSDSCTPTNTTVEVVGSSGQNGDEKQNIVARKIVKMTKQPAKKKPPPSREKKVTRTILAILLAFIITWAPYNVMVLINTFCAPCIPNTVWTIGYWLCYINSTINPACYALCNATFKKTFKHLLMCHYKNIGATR

Thromboxane A2 receptor = molecular target: T2, Thromboxane A2 receptor (Homo sapiens, UniProt P21731)
T2 sequence (P21731 whole entry): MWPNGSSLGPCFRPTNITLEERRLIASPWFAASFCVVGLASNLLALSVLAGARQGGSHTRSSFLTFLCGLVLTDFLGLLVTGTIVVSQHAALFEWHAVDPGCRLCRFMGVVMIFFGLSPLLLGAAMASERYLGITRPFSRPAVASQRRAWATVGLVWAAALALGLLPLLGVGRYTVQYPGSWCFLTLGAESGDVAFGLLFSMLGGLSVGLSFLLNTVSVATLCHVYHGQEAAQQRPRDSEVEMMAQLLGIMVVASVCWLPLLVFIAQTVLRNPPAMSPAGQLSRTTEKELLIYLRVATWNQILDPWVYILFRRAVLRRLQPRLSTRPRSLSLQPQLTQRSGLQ

[2] = molecular target: T3, Neuropeptide Y receptor type 1 (Homo sapiens, UniProt P25929)
T3 sequence (P25929 whole entry): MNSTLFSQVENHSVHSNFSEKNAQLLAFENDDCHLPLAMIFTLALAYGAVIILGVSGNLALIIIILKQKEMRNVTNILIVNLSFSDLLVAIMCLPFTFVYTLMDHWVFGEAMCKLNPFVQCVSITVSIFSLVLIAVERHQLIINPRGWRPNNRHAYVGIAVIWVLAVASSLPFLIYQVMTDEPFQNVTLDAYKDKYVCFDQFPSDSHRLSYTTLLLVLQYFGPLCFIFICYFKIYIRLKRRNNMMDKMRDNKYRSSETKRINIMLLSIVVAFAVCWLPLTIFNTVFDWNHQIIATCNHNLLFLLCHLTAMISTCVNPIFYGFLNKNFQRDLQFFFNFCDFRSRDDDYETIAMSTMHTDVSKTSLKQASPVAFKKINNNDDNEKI

[3] = molecular target: T1, Muscarinic acetylcholine receptor M2; format: functional, cell-based; remark: listed apart in the source
[4] = molecular target: Sodium-dependent dopamine transporter (Homo sapiens, UniProt Q01959)
[5] = molecular target: T4, Gamma-aminobutyric acid receptor subunit alpha-1 (Rattus norvegicus, UniProt P62813)
[6] = molecular target: Sodium-dependent serotonin transporter (Homo sapiens, UniProt P31645)
[7] = molecular target: T4, Gamma-aminobutyric acid receptor subunit alpha-1; format: functional
Glucocorticoid receptor = molecular target: T5, Glucocorticoid receptor (Homo sapiens, UniProt P04150)
T5 sequence (P04150 whole entry): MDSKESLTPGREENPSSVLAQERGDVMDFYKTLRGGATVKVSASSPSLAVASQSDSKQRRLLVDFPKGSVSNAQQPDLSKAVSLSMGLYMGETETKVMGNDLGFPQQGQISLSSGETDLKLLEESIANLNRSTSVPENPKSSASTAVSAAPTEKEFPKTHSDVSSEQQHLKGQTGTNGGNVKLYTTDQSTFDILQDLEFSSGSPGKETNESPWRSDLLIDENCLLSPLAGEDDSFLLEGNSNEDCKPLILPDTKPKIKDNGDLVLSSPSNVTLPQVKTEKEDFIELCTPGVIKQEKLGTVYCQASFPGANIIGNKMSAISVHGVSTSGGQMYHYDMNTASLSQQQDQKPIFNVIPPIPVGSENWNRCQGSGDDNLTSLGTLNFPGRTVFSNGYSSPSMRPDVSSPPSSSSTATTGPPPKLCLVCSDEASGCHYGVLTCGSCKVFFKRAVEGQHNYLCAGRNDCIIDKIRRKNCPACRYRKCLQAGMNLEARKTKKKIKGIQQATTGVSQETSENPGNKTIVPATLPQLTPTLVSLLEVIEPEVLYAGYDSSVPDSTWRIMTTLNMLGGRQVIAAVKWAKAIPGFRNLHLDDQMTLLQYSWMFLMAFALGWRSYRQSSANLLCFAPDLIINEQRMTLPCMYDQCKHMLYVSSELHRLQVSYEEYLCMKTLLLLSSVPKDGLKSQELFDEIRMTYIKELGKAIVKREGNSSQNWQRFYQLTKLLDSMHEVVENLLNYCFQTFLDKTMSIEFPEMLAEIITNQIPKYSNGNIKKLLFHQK

[8] = molecular target: Delta-type opioid receptor (Homo sapiens, UniProt P41143)
Adenosine receptor A3 = molecular target: T6, Adenosine receptor A3 (Homo sapiens, UniProt P0DMS8)
T6 sequence (P0DMS8 whole entry): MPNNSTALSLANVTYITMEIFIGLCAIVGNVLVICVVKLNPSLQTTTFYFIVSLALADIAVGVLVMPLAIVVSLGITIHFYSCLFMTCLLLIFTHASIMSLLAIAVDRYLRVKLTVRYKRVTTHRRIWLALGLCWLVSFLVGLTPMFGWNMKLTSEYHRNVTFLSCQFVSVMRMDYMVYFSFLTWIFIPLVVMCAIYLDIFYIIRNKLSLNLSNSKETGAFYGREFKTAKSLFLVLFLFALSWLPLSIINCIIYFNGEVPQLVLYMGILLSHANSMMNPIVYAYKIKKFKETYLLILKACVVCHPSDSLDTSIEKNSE

[9] = molecular target: Muscarinic acetylcholine receptor M3 (Homo sapiens, UniProt P20309)
[10] = molecular target: 3',5'-cyclic-AMP phosphodiesterase 4D (Homo sapiens, UniProt Q08499); format: functional
Note: assay procedure not described here.

Chain of 3',5'-cyclic-AMP phosphodiesterase 4D (Q08499 whole entry): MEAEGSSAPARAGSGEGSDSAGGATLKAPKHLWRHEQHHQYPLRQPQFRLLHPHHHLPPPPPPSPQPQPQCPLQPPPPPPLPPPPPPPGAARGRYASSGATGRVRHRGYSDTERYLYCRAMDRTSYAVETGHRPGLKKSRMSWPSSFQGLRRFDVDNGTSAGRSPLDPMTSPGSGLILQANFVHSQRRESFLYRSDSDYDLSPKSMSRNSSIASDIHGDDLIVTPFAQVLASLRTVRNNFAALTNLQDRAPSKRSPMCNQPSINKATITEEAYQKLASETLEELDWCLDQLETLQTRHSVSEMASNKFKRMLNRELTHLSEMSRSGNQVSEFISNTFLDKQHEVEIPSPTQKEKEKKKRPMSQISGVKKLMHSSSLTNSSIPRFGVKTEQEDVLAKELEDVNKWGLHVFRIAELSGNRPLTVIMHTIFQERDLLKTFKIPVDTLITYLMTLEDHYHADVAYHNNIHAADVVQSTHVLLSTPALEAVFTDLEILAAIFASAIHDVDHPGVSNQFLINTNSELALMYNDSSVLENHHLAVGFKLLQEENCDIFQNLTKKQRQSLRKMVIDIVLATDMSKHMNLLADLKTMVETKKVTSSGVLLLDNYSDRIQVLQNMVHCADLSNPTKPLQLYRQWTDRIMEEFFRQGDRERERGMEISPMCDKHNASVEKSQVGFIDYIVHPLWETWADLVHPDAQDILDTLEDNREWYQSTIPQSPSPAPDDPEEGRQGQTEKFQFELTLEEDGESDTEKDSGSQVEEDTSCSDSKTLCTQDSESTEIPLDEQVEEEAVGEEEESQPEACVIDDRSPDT
Chain of Delta-type opioid receptor (P41143 whole entry): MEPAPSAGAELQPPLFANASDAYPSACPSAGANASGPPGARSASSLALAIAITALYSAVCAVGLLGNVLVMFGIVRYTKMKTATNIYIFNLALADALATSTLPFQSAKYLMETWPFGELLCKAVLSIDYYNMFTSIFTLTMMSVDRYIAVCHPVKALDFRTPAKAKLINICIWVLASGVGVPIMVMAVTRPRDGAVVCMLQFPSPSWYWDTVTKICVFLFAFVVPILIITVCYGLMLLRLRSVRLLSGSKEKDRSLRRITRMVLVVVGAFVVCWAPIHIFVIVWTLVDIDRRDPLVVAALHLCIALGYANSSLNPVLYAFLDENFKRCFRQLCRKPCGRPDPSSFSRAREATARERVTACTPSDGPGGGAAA
Chain of Muscarinic acetylcholine receptor M3 (P20309 whole entry): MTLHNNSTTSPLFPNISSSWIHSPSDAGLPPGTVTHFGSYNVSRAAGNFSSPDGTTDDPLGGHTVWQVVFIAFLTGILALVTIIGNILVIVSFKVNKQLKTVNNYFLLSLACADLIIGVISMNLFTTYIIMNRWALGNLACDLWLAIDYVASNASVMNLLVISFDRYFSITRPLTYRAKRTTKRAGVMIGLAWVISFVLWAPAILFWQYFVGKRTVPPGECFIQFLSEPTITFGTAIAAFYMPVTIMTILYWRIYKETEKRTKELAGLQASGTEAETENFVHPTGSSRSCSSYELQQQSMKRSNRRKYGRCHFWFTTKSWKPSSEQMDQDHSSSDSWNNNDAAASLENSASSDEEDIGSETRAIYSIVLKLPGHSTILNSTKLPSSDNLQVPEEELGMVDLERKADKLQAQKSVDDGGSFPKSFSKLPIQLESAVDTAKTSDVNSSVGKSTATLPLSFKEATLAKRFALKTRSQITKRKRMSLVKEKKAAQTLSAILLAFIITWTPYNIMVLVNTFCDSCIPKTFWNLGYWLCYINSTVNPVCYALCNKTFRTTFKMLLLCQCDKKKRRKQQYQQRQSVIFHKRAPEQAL
Chain of Sodium-dependent serotonin transporter (P31645 whole entry): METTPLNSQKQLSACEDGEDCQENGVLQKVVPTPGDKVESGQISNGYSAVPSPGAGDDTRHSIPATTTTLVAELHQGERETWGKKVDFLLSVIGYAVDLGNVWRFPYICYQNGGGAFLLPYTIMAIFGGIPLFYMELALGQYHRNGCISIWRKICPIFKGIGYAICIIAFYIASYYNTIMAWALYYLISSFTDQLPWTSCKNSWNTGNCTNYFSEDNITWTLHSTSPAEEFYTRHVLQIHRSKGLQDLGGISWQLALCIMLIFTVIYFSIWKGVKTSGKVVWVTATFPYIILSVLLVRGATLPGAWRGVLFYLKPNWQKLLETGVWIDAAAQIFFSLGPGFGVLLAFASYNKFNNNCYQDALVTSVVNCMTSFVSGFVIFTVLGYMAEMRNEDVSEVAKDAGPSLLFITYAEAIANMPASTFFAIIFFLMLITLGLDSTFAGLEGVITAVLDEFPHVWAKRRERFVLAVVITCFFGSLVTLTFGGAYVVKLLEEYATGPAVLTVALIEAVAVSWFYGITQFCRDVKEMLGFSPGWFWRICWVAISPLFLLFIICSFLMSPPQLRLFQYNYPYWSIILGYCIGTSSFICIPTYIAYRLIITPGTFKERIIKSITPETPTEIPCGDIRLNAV
Chain of Cannabinoid receptor 1 (P21554 whole entry): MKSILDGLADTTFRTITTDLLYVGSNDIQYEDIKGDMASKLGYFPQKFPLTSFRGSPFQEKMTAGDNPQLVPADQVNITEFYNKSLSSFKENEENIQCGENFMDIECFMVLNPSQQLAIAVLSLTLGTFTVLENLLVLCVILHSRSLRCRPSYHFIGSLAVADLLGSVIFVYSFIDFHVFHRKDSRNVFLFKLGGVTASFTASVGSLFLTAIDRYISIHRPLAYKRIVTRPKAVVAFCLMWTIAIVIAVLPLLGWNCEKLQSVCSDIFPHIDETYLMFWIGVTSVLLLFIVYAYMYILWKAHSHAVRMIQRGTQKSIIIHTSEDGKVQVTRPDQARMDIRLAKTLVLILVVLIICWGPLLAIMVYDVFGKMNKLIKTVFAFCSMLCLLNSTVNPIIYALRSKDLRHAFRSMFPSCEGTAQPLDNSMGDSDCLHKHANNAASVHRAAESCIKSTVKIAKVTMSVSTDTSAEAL
T4 sequence (P62813 whole entry): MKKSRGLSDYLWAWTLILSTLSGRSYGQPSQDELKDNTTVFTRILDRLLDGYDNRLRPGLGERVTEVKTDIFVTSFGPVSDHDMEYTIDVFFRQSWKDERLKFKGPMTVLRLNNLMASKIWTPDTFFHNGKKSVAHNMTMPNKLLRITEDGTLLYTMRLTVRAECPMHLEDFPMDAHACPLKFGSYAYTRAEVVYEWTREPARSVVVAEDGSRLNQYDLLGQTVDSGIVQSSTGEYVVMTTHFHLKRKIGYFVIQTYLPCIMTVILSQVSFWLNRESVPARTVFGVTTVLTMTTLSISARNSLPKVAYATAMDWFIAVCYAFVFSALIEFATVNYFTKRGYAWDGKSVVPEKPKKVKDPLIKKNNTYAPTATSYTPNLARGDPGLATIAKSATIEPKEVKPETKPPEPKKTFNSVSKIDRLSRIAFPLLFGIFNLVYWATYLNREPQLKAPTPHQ
Chain of Sodium-dependent dopamine transporter (Q01959 whole entry): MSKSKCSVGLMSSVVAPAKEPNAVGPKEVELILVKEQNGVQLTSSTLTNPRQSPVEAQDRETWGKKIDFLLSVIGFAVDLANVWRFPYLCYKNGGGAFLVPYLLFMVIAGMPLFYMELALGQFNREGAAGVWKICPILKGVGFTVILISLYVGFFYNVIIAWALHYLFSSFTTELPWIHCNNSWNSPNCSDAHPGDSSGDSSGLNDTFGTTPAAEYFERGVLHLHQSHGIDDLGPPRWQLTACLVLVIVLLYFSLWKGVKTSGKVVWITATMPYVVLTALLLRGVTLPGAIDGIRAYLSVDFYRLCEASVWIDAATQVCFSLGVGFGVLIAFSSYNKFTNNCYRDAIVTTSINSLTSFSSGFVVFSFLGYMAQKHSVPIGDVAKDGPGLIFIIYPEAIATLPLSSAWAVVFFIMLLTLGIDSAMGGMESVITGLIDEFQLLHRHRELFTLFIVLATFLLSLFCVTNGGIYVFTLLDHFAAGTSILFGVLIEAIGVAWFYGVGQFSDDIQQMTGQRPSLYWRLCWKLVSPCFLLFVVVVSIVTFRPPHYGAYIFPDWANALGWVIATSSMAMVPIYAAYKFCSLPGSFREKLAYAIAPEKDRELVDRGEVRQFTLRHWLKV

Structure (SMILES)	AC50 (Cannabinoid receptor 1) [µM]	AC50 [1] [µM]	AC50 (Thromboxane A2 receptor) [µM]	AC50 [2] [µM]	AC50 [3] [µM]	AC50 [4] [µM]	AC50 [5] [µM]	AC50 [6] [µM]	AC50 [7] [µM]	AC50 (Glucocorticoid receptor) [µM]	AC50 [8] [µM]	AC50 (Adenosine receptor A3) [µM]	AC50 [9] [µM]	AC50 [10] [µM]
CN1CC(=O)N2[C@H](c3ccc4c(c3)OCO4)c3[nH]c4ccccc4c3C[C@@H]2C1=O	> 30	> 10	> 30	> 30	> 10	> 30	> 10	34.8	> 10	> 30	> 30	> 30	> 30	–
C=C1CC[C@@]2(O)[C@H]3Cc4ccc(O)c5c4[C@@]2(CCN3CC2CC2)[C@H]1O5	> 30	> 30	> 30	> 30	> 30	> 30	> 30	> 30	> 30	> 30	–	> 30	> 30	> 30
CCCCCCCCCCCC[N+](C)(C)CCOc1ccccc1 [DOMIPHEN]	17	–	> 30	4.4	14	2.5	> 30	1.7	> 30	18	> 30	10	8.4	12
O=C1CN=C(c2ccccc2)c2cc(Cl)ccc2N1CC(F)(F)F [HALAZEPAM]	> 30	> 30	–	> 30	> 30	> 30	–	> 30	0.506	> 30	> 30	26	> 30	> 30
COC(=O)C1=C(C)NC(C)=C(C(=O)OC(C)C)C1c1cccc2nonc12 (stereo not given) [ISRADIPINE]	–	> 10	20.1	> 30	> 10	26	> 10	> 30	> 10	15.1	11	20.3	> 30	9
CC1=CC(=O)c2ccccc2C1=O [MENADIONE]	–	> 10	> 10	> 10	> 10	> 10	> 10	> 10	> 10	> 30	> 30	13.7	> 30	> 30
C[C@H]1C[C@@H]2[C@H]([C@@H](O)C[C@@]3(C)[C@H]2CC[C@]3(O)C(=O)COC(=O)CCC(=O)O)[C@@]2(C)C=CC(=O)C=C12 [METHYLPREDNISOLONE HEMISUCCINATE]	> 30	> 30	–	> 30	> 30	> 30	> 30	> 30	> 30	0.67	> 30	> 30	> 30	> 30
CCCCCCCCOc1ccccc1C(=O)Nc1ccc(C(=O)OCC[N+](C)(CC)CC)cc1 [OTILONIUM BROMIDE]	19	–	> 30	10	16	4.4	> 30	0.91	> 30	11	29	5.3	1.7	2.5
CN1CCCN=C1COC(=O)C(O)(c1ccccc1)C1CCCCC1 (stereo not given) [OXYPHENCYCLIMINE]	–	0.07	> 10	> 10	> 10	> 30	> 10	> 30	> 10	> 10	> 30	> 10	> 30	> 30
CN1CCC2=C(C1)C(c1ccccc1)c1ccccc12 (stereo not given) [PHENINDAMINE]	–	> 10	> 10	> 10	> 10	> 30	> 10	> 30	> 10	> 30	> 30	> 10	> 30	8.7
O=C(O)CCCc1ccccc1 [PHENYLBUTANOIC ACID]	–	> 30	> 10	> 10	> 30	3.2	> 30	> 10	> 30	> 30	> 30	> 10	> 30	> 30
CC(Cc1ccccc1)NCCC(c1ccccc1)c1ccccc1 (stereo not given) [PRENYLAMINE]	–	> 10	> 30	> 30	> 10	4.7	> 10	17.6	> 10	> 30	> 30	15.6	> 10	> 30
CC(=O)NS(=O)(=O)c1ccc(N)cc1 [SULFACETAMIDE]	–	> 10	> 10	> 10	> 10	> 10	> 10	> 10	> 10	> 10	> 30	> 10	> 30	> 30
Cc1ccc(-c2nc3ccc(C)cn3c2CC(=O)N(C)C)cc1 [ZOLPIDEM]	> 30	> 30	> 30	> 30	> 30	> 30	–	> 30	–	> 30	> 30	> 30	> 30	> 30
